One data set deals with Alternaria alternata. Kind of data set: Alternaria alternata in vitro cell test. Type of data set: cell-based. Conditions: 120 h, 20 ppm of active ingredient, liquid culture, 5 days incubation, spectrometric measurement of mycelium growth, read-out: efficacy (inhibition of fungal growth). The gist of the method: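 Liquid culture assay in which A. alternata spores in medium received DMSO-solubilized compound (final DMSO ≤1%). After 5 days, mycelium growth was measured spectrometrically. Inhibition was calculated against fungicide-free control wells.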

The subject of data set [1] is Botrytis cinerea. Description: B-11. Botrytis cinerea in vitro cell test. In kind it is cell-based. To be noted: 144 h, 20 ppm of active ingredient, 6 days incubation, liquid culture, absorbance, read-out: efficacy (inhibition of fungal growth). Summed up:
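B. cinerea spores were grown in liquid culture with compound (DMSO ≤1% final). Mycelium growth was measured spectrometrically after 6 days, with inhibition taken as absorbance relative to untreated control wells.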

The nature of data set [2]: Measurement of Log P values by HPLC on reversed phase columns (EEC directive 79/831 Annex V.A8). Type of data set: physicochemical. To be noted: reversed phase HPLC column, method [a]: LC-UV, acidic range, 0.1% formic acid in water and acetonitrile as eluent. The gist of the method:
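Reversed-phase HPLC with UV detection per EEC 79/831 Annex V.A8, linear 10–95% acetonitrile gradient. Aqueous eluent: 0.1% formic acid (acidic), 0.001 M ammonium acetate (neutral), or 0.1% phosphoric acid (acidic); multiple values in one method joined by "+".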

The subject of data set [3] is Pyrenophora teres. Description: In vivo preventive test on Pyrenophora teres (net blotch on barley). To be noted: 240 h, 500 ppm of active ingredient, preventive spray on barley, evaluated 10 days after inoculation, read-out: efficacy. Summed up:
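Young barley plants sprayed preventively with compound formulated in DMSO/acetone/Tween 80 and diluted in water; controls got solvent only. Inoculated 24 hours later with P. teres spore suspension, then held 48 hours at 20° C, 100% RH and 8 days at 20° C, 70-80% RH.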

Data set [4] deals with Colletotrichum lindemuthianum. Kind of data set: In vivo preventive test on Colletotrichum lindemuthianum (leaf spot on bean). To be noted: 168 h, 500 ppm of active ingredient, preventive spray on bean, evaluated 7 days after inoculation, read-out: efficacy. The gist of the method:
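Young bean plants sprayed with compound in DMSO/acetone/Tween 80 diluted in water; solvent-only controls. Inoculated 24 h later with C. lindemuthianum spore suspension, then kept 24 h at 20 °C/100% RH and 6 days at 20 °C/90% RH.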

The next data set concerns Septoria tritici. Description: B-9. Septoria tritici in vitro cell test. Type of data set: cell-based. Conditions: Zymoseptoria tritici, 168 h; 20 ppm of active ingredient; 7 days incubation; liquid culture, absorbance; read-out: efficacy (inhibition of fungal growth). Summed up: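 Compounds from DMSO stocks (final DMSO ≤1%) were added to liquid medium containing S. tritici spores to test inhibition of germination and mycelial growth. After 7 days, mycelium growth was read spectrometrically and inhibition derived from absorbance versus fungicide-free control wells.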

For another data set, the system named is Alternaria brassicae. Kind of data set: In vivo preventive test on Alternaria brassicae (leaf spot on radish or cabbage). To be noted: 500 ppm of active ingredient, preventive spray on radish or cabbage, evaluated 3 to 4 days after inoculation, read-out: efficacy. Summed up: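 Young radish or cabbage plants were sprayed with compound dissolved in DMSO/acetone/Tween 80 and diluted in water; controls received solvent only. Inoculation by spraying A. brassicae spore suspension 24 h later, then 3–4 days at 20 °C and 100% relative humidity.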

Data set [5] concerns Botrytis cinerea. Description: In vivo preventive test on Botrytis cinerea (grey mould). To be noted: 500 ppm of active ingredient, preventive spray on gherkin or cabbage, evaluated 4 to 5 days after inoculation, read-out: efficacy. Summed up:
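Young gherkin or cabbage plants were sprayed with compound in DMSO/acetone/Tween 80 diluted in water, then inoculated 24 hours later with a B. cinerea spore suspension. Incubation lasted 4 to 5 days: gherkin at 17° C., 90% relative humidity; cabbage at 20° C., 100% relative humidity.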

For data set [6], the system named is Pyrenophora teres. Kind of data set: B-10. Pyrenophora teres in vitro cell test. Type of data set: cell-based. To be noted: 144 h, 20 ppm of active ingredient, 6 days incubation, liquid culture, absorbance, read-out: efficacy (inhibition of fungal growth). The gist of the method: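 Liquid-culture assay on a P. teres spore suspension with compounds added to the medium from DMSO solutions, final DMSO ≤1%. Mycelium growth read spectrometrically after 6 days. Inhibition calculated from absorbance against untreated control wells.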

Another data set has as its system Sphaerotheca fuliginea. Description: In vivo preventive test on Sphaerotheca fuliginea (powdery mildew on cucurbits). Conditions: Podosphaera fuliginea, 192 h; 500 ppm of active ingredient; preventive spray on gherkin; evaluated 8 days after inoculation; read-out: efficacy. The gist of the method:
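Young gherkin plants were sprayed with compound in DMSO/acetone/Tween 80 diluted in water. They were inoculated 24 h later with a spore suspension of Sphaerotheca fuliginea. Plants were then kept for 8 days at 20 °C and 70–80% relative humidity.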

Each structure is given as a SMILES string.

inhibition, chromatographic logP and pest or weed control data for two compounds are collected here from patent US20230192617A1, “AZABICYCLIC(THIO)AMIDES AS FUNGICIDAL COMPOUNDS” (Bayer CropScience Aktiengesellschaft, priority 2020, published 2023).

The term inhibition denotes how much of the control response was suppressed. In general, chromatographic logP refers to a lipophilicity value derived from retention on a column. Low values mean lower lipophilicity, high ones higher lipophilicity. Take `Cc1cc(Cl)ccc1C(F)(F)CNC(=O)c1c(Oc2cccc(C(F)(F)F)c2)nnc2c1COCC2` [I-125]: the inhibition at 20 ppm with Alternaria alternata, in the data set with Botrytis cinerea [1], in the data set on Septoria tritici and in the data set on Pyrenophora teres [6] was 90 to 100% throughout. In [2], the chromatographic logP amounted to 3.85. Also, the pest or weed control at 500 ppm in the data set on Pyrenophora teres [3] was 70 to 79%; in data set [4], 80 to 89%; in the data set on Alternaria brassicae, 90 to 100%; in the data set on Botrytis cinerea [5] it was 90 to 100%; with Sphaerotheca fuliginea, 90 to 100%.

As to `O=C(NC[C@H](F)c1ccc(Cl)cc1Cl)c1c(Oc2cccc(C(F)(F)F)c2)nnc2ccccc12` (racemic) [I-219], the inhibition at 20 ppm with Alternaria alternata lay within 80 to 89%; with Botrytis cinerea [1], 90 to 100%; with Septoria tritici, 80 to 89%; with Pyrenophora teres [6] it was 70 to 79%. This compound also had a chromatographic logP in [2] of 4.55. Further, the pest or weed control at 500 ppm (in the data set on Pyrenophora teres [3]; in data set [4]; with Alternaria brassicae; in the data set on Botrytis cinerea [5]; in the data set on Sphaerotheca fuliginea) was 90 to 100% each time.
